Assay [1] has as its system cell-free eukaryotic translation system on the basis of a cell extract from Spodoptera frugiperda (Sf21) insect cells. Description: Cell-free synthesis of SII-eYFP, protein yield by 14C-leucine incorporation (hot TCA precipitation, scintillation). It is filed as biochemical. Particulars: −V, +CI. The procedure: The influence of the caspase inhibitor on the maximum achievable protein yield was initially investigated on the basis of the expression of the cytosolic protein SII-eYFP. This model protein is the enhanced yellow fluorescent protein (eYFP) which was fused at the N-terminus with an affinity tag (Strep-Tag, SII-Tag) and was present in the vector pIX3.0 (Qiagen). The expression of the model protein was analyzed in the batch system and the dialysis system (50 μl reaction chamber; 1000 μl feeding chamber; cut-off of the membrane=10 kDa) over a period of 48 h. The translation mixtures were each incubated in the batch system and the dialysis system with (+) and without (−) insect cell vesicles (V) and with (+) and without (−) caspase inhibitor (CI) (at 27° C. and 600 rpm). The protein synthesis was carried out in the presence of the radioactively labeled amino acid ^14C-leucine in order to be able to determine the quantity of de novo synthesized target protein by means of hot TCA precipitation and scintillation measurement. The translation reactions were interrupted at particular time points (0 h, 2 h, 4 h, 24 h and 48 h) and analyzed as follows: 5 μl of the mixture was precipitated in hot TCA or ice-cold acetone in each case. A further 5 μl was resuspended in 25 μl PBS. The remaining sample volume was separated by means of a centrifuging step into the supernatant fluid (SN) and the vesicular fraction (VF). Aliquots of 5 μl of these fractions were diluted in 25 μl PBS each. Following the TCA precipitation, the samples were separated from free radioactive amino acids via a vacuum-driven filtration system and underwent a scintillation measurement. After drying, the proteins precipitated in acetone were collected in a reducing sample buffer and separated electrophoretically.

For assay [2] the test system is unchanged. Kind of assay: Cell-free synthesis of SII-eYFP, fluorescence intensity (phosphorimager), Example 1. It is filed as biochemical. Particulars: dialysis system after 48 h, −V, +CI versus −CI, densitometric evaluation. The procedure: The expression of the model protein was analyzed in the batch system and the dialysis system (50 μl reaction chamber; 1000 μl feeding chamber; cut-off of the membrane=10 kDa) over a period of 48 h. The translation mixtures were each incubated in the batch system and the dialysis system with (+) and without (−) insect cell vesicles (V) and with (+) and without (−) caspase inhibitor (CI) (at 27° C. and 600 rpm). The protein synthesis was carried out in the presence of the radioactively labeled amino acid ^14C-leucine in order to be able to determine the quantity of de novo synthesized target protein by means of hot TCA precipitation and scintillation measurement. The translation reactions were interrupted at particular time points (0 h, 2 h, 4 h, 24 h and 48 h) and analyzed as follows: 5 μl of the mixture was precipitated in hot TCA or ice-cold acetone in each case. A further 5 μl was resuspended in 25 μl PBS. The remaining sample volume was separated by means of a centrifuging step into the supernatant fluid (SN) and the vesicular fraction (VF). […] The samples resuspended in PBS were examined in the phosphorimager system (Typhoon TRIO+ imager, GE Healthcare) for their fluorescence intensity. For this purpose, 25 μl samples were pipetted into each cavity of the Ibidi slides and measured, the excitation of the samples taking place at 488 nm and the emission being measured at 526 nm.

Assay [3] has the same test system. Description: Cell-free expression of membrane proteins (ETB, Hb-EGF, bacteriorhodopsin), protein yield by scintillation measurement. It is filed as biochemical. The source says:
Here, the influence of the caspase inhibitor on the expression of different membrane proteins in the eukaryotic translation system was investigated more closely. For this purpose, three different model proteins were selected: the endothelin-B receptor (ETB) is a G-protein coupled receptor with seven transmembrane domains which was used cloned into the vector pIX3.0 (Qiagen) for the expression. Furthermore, the type I transmembrane protein heparin-binding EGF-like growth factor (Hb-EGF), N-terminally fused to the melittin signal sequence and C-terminally fused to eYFP, present in the vector pIX3.0, was used for the expression. In addition, the expression of the membrane protein bacteriorhodopsin which also has seven transmembrane domains and was present in the vector pMA (GeneArt) was investigated. The three proteins were each expressed in the batch and dialysis systems without (−) and with (+) the addition of the caspase inhibitor (CI) in the presence of ^14C-leucine for 48 h (27° C.; 600 rpm, Eppendorf Thermomixer Comfort) and analyzed as in example 1. […] The expression of each of the three membrane proteins (ETB, 49.3 kDa; Hb-EGF, 51 kDa; bacteriorhodopsin, 26.9 kDa) was able to be increased in the dialysis system (comparison of the dialysis batches +CI and −CI) with the addition of the caspase inhibitor by approximately 100% (FIG. 2).

Assay [4] deals with Mel-hEGFR-eYFP in microsomes of the insect cell lysate. Kind of assay: Multiple (repetitive) synthesis of Mel-hEGFR-eYFP into microsomes of the insect cell lysate. It is filed as biochemical, Spodoptera frugiperda. The procedure:
A suitable method for increasing the concentration of a particular target protein in the lumen or the membrane of the insect cell vesicles lies in carrying out multiple syntheses. This procedure leads to a longer dwell time of the de novo synthesized target proteins in the translation mixture. For successful conversion, it is therefore absolutely necessary to ensure the stability of the target proteins even after relatively long incubation times (>1.5 h) in the translation mixture. For this purpose, the caspase inhibitor Z-VAD-FMK was added to the translation reaction. The multiple synthesis of the target protein was carried out as follows: the microsomes of the translation mixture incubated under standard conditions (27° C., 1.5 h) were pelleted with a centrifugation step at 16,000 g and resuspended in a new translation-active cell lysate without microsomes and incubated again for 1.5 h at 27° C. in the presence of the caspase inhibitor Z-VAD-FMK. In the present experimental example, the synthesis was repeated four times. Following each synthesis step, the yield of radioactively labeled protein in the translation mixture, the supernatant and the vesicular fraction were determined. In addition, 5 μl of the translation mix were precipitated in acetone and subsequently separated out electrophoretically. […] The addition of the caspase inhibitor to the translation reaction enables a synthesis of the target protein over a total of 6 h.

[5] abbreviates: dialysis system 48 h, +CI vs −CI.
Where [6] appears, read: from synthesis steps 1 to 4, in presence of Z-VAD-FMK.

Consider one molecule from patent publication US9951366B2, “Cell-free protein synthesis method and device using a eukaryotic cell lysate in the presence of a caspase inhibitor and the use of a caspase inhibitor for increasing the yield and/or the stability of the synthesized proteins in such a method” (Fraunhofer-Gesellschaft zur Foerderung der angewandten …, priority 2013, dated 2018).

Peptide text beside a SMILES is read from it. * marks the point of attachment. Cbz = O=C(OCc1ccccc1)*; CH2F = FC*

For the molecule `COC(=O)C[C@H](NC(=O)[C@H](C)NC(=O)[C@@H](NC(=O)OCc1ccccc1)C(C)C)C(=O)CF` [Z-VAD-FMK, benzyloxycarbonyl-Val-Ala-Asp-[O-methyl]-fluoromethylketone] (Cbz-Val-Ala-Asp(OMe)-CH2F), the “protein yield of SII-eYFP” value in assay [1] (batch system after 48 h) came to 17.3 µg/mL. Moreover, in assay [1] (dialysis system after 48 h), the “protein yield of SII-eYFP” value worked out at 90.8 µg/mL. In addition, the “increase of the maximum protein yield of SII-eYFP” value in assay [1] (dialysis system vs batch system, 48 h) is on record as “approximately 400%”. In addition, the “fluorescence signal of SII-eYFP, fold more intense” value in assay [2] is listed as 3.7 times. For the same molecule, in assay [3] (setting [5]), the “increase of expression of ETB” value is reported as “approximately 100%”, the “increase of expression of Hb-EGF” value is on record as “approximately 100%” and the “increase of expression of bacteriorhodopsin” value is reported as “approximately 100%”. Besides, the “increase of maximum achievable yields of membrane protein, average” value in assay [3] (dialysis system, addition of caspase inhibitor) is recorded as “approximately 100%”. Further, in assay [4] (four repeated syntheses of 1.5 h at 27° C. in presence of caspase inhibitor), the “total time over which synthesis of the target protein is enabled” value was 6 h. Besides, in assay [4] (setting [6]), the “increase of yield of target protein, total protein in the translation mixture” value is 110% and the “increase of yield of target protein, vesicular fraction” value came to 180%.
